What was measured:
in vitro = settings: human
[1] = test system: HCV replicon (Genotype 1b); assay: Luciferase genotype 1b replicon potency assay; settings: Hepatitis C virus, GETYPE1B, read-out: IC50 μM, HCV genotype 1b luciferase replicon, Renilla luciferase reporter

| SMILES | CC50 (in vitro) | IC50 [1] |
| --- | --- | --- |
| COc1nc(N)nc2c1ncn2C1O[C@H](CO[P@](=O)(N[C@@H](C)C(=O)OCC(C)(C)C)Oc2cccc3ccccc23)[C@@H](O)[C@@]1(C)O (single isomer, unassigned) [Example 22] | 6 µM | 0.019 µM |
| COc1nc(N)nc2c1ncn2C1O[C@H](COP(=O)(N[C@@H](C)C(=O)OCc2ccc(F)cc2F)Oc2cccc3ccccc23)[C@@H](O)[C@@]1(C)O (stereo partly drawn) [Example 14, (2S)-2,4-difluorobenzyl 2-((((2R,3R,4R)-5-(2-amino-6-methoxy-9H-purin-9-yl)-3,4-dihydroxy-4-methyltetrahydrofuran-2-yl)methoxy)(naphthalen-1-yloxy)phosphorylamino)propanoate] | 15 µM | 0.04 µM |
| COc1nc(N)nc2c1ncn2C1O[C@H](COP(=O)(N[C@@H](C)C(=O)O[C@@H](C)c2ccccc2)Oc2cccc3ccccc23)[C@@H](O)[C@@]1(C)O (some centres unmarked) [Example 15] | 12 µM | 0.032 µM |
| COc1nc(N)nc2c1ncn2C1O[C@H](COP(=O)(N[C@@H](C)C(=O)OC2Cc3ccccc3C2)Oc2cccc3ccccc23)[C@@H](O)[C@@]1(C)O (stereo partly drawn) [Example 16, (2S)-2,3-dihydro-1H-inden-2-yl 2-((((2R,3R,4R)-5-(2-amino-6-methoxy-9H-purin-9-yl)-3,4-dihydroxy-4-methyltetrahydrofuran-2-yl)methoxy) (naphthalen-1-yloxy)phosphorylamino)propanoate] | 11 µM | 0.027 µM |
| CCCOC(=O)[C@H](C)NP(=O)(OC[C@H]1OC(n2cnc3c(OC)nc(N)nc32)[C@](C)(O)[C@@H]1O)Oc1cccc2ccccc12 (stereo partly drawn) [Example 17, (2S)-propyl 2-((((2R,3R,4R)-5-(2-amino-6-methoxy-9H-purin-9-yl)-3,4-dihydroxy-4-methyltetrahydrofuran-2-yl)methoxy)(naphthalen-1-yloxy)phosphorylamino)propanoate] | 12 µM | 0.029 µM |
| COc1nc(N)nc2c1ncn2C1O[C@H](COP(=O)(N[C@@H](C)C(=O)OCCC(C)(C)C)Oc2cccc3ccccc23)[C@@H](O)[C@@]1(C)O (stereo partly drawn) [Example 18, (2S)-3,3-dimethylbutyl 2-((((2R,3R,4R)-5-(2-amino-6-methoxy-9H-purin-9-yl)-3,4-dihydroxy-4-methyltetrahydrofuran-2-yl)methoxy)(naphthalen-1-yloxy)phosphorylamino)propanoate] | 7.6 µM | 0.013 µM |
| COc1nc(N)nc2c1ncn2C1O[C@H](COP(=O)(N[C@@H](C)C(=O)OCC(C)C)Oc2cccc3ccccc23)[C@@H](O)[C@@]1(C)O (stereo partly drawn) [Example 19, (2S)-isobutyl 2-((((2R,3R,4R)-5-(2-amino-6-methoxy-9H-purin-9-yl)-3,4-dihydroxy-4-methyltetrahydrofuran-2-yl)methoxy)(naphthalen-1-yloxy)phosphorylamino)propanoate] | 14 µM | 0.037 µM |
| COc1nc(N)nc2c1ncn2C1O[C@H](CO[P@@](=O)(N[C@@H](C)C(=O)OCC(C)(C)C)Oc2cccc3ccccc23)[C@@H](O)[C@@]1(C)O (some centres unmarked) [Example 21] | 13 µM | 0.043 µM |
| COc1nc(N)nc2c1ncn2C1O[C@H](COP(=O)(N[C@@H](C)C(=O)OC(C)C)Oc2cccc3ccccc23)[C@@H](O)[C@@]1(C)O (stereo partly drawn) [Example 23, (2S)-isopropyl 2-((((2R,3R,4R)-5-(2-amino-6-methoxy-9H-purin-9-yl)-3,4-dihydroxy-4-methyltetrahydrofuran-2-yl)methoxy)(naphthalen-1-yloxy)phosphorylamino)propanoate] | 100 µM | 0.43 µM |
| COc1nc(N)nc2c1ncn2C1O[C@H](COP(=O)(N[C@@H](C)C(=O)OC2CCCC2)Oc2cccc3ccccc23)[C@@H](O)[C@@]1(C)O (stereo partly drawn) [Example 24, (2S)-cyclopentyl 2-((((2R,3R,4R)-5-(2-amino-6-methoxy-9H-purin-9-yl)-3,4-dihydroxy-4-methyltetrahydrofuran-2-yl)methoxy)(naphthalen-1-yloxy)phosphorylamino)propanoate] | 9 µM | 0.02 µM |
| COc1nc(N)nc2c1ncn2C1O[C@H](COP(=O)(N[C@@H](C)C(=O)OC2CCCCC2)Oc2cccc3ccccc23)[C@@H](O)[C@@]1(C)O (stereo partly drawn) [Example 25, (2S)-cyclohexyl 2-((((2R,3R,4R)-5-(2-amino-6-methoxy-9H-purin-9-yl)-3,4-dihydroxy-4-methyltetrahydrofuran-2-yl)methoxy)(naphthalen-1-yloxy)phosphorylamino)propanoate] | 6 µM | 0.014 µM |
| COc1nc(N)nc2c1ncn2C1O[C@H](COP(=O)(N[C@@H](C)C(=O)OC2CCOCC2)Oc2cccc3ccccc23)[C@@H](O)[C@@]1(C)O (stereo partly drawn) [Example 26, (2S)-tetrahydro-2H-pyran-4-yl 2-((((2R,3R,4R)-5-(2-amino-6-methoxy-9H-purin-9-yl)-3,4-dihydroxy-4-methyltetrahydrofuran-2-yl)methoxy)(naphthalen-1-yloxy)phosphorylamino)propanoate] | 130 µM | 0.08 µM |
| COC(=O)[C@@H](C)c1ccc2cc(OP(=O)(N[C@@H](C)C(=O)OCc3ccc(F)cc3F)OC[C@H]3OC(n4cnc5c(OC)nc(N)nc54)[C@](C)(O)[C@@H]3O)ccc2c1 (stereo partly drawn) [Example 27, (2S)-2,4-difluorobenzyl 2-((((2R,3R,4R)-5-(2-amino-6-methoxy-9H-purin-9-yl)-3,4-dihydroxy-4-methyltetrahydrofuran-2-yl)methoxy)(6-((S)-1-methoxy-1-oxopropan-2-yl)naphthalen-2-yloxy)phosphorylamino)propanoate] | 28 µM | 0.055 µM |
| COC(=O)[C@@H](C)c1ccc2cc(OP(=O)(N[C@@H](C)C(=O)OCC(C)(C)C)OC[C@H]3OC(n4cnc5c(OC)nc(N)nc54)[C@](C)(O)[C@@H]3O)ccc2c1 (stereo partly drawn) [Example 28, (2S)-methyl 2-(6-((((2R,3R,4R)-5-(2-amino-6-methoxy-9H-purin-9-yl)-3,4-dihydroxy-4-methyltetrahydrofuran-2-yl)methoxy)((S)-1-(neopentyloxy)-1-oxopropan-2-ylamino)phosphoryloxy)naphthalen-2-yl)propanoate] | 19 µM | 0.023 µM |
| COC(=O)[C@@H](C)c1ccc2cc(OP(=O)(N[C@@H](C)C(=O)OC3CCOCC3)OC[C@H]3OC(n4cnc5c(OC)nc(N)nc54)[C@](C)(O)[C@@H]3O)ccc2c1 (stereo partly drawn) [Example 29, (2S)-methyl 2-(6-((((2R,3R,4R)-5-(2-amino-6-methoxy-9H-purin-9-yl)-3,4-dihydroxy-4-methyltetrahydrofuran-2-yl)methoxy)((S)-1-oxo-1-(tetrahydro-2H-pyran-4-yloxy)propan-2-ylamino)phosphoryloxy)naphthalen-2-yl)propanoate] | > 100 µM | 0.11 µM |
| COc1nc(N)nc2c1ncn2C1O[C@H](COP(=O)(N[C@@H](C)C(=O)OCc2ccc(F)cc2F)Oc2cccc3ncccc23)[C@@H](O)[C@@]1(C)O (stereo partly drawn) [Example 30, (2S)-2,4-difluorobenzyl 2-((((2R,3R,4R)-5-(2-amino-6-methoxy-9H-purin-9-yl)-3,4-dihydroxy-4-methyltetrahydrofuran-2-yl)methoxy)(quinolin-5-yloxy)phosphorylamino)propanoate] | 110 µM | 0.13 µM |
| COc1nc(N)nc2c1ncn2C1O[C@H](COP(=O)(N[C@@H](C)C(=O)OCC(C)(C)C)Oc2cccc3ncccc23)[C@@H](O)[C@@]1(C)O (stereo partly drawn) [Example 31, (2S)-neopentyl 2-((((2R,3R,4R)-5-(2-amino-6-methoxy-9H-purin-9-yl)-3,4-dihydroxy-4-methyltetrahydrofuran-2-yl)methoxy)(quinolin-5-yloxy)phosphorylamino)propanoate] | > 100 µM | 0.19 µM |
| COc1nc(N)nc2c1ncn2C1O[C@H](COP(=O)(N[C@@H](C)C(=O)OC2CCOCC2)Oc2cccc3ncccc23)[C@@H](O)[C@@]1(C)O (stereo partly drawn) [Example 32, (2S)-tetrahydro-2H-pyran-4-yl 2-((((2R,3R,4R)-5-(2-amino-6-methoxy-9H-purin-9-yl)-3,4-dihydroxy-4-methyltetrahydrofuran-2-yl)methoxy)(quinolin-5-yloxy)phosphorylamino)propanoate] | > 100 µM | 1.2 µM |
| COc1nc(N)nc2c1ncn2C1O[C@H](COP(=O)(N[C@@H](C)C(=O)OCC(C)(C)C)Oc2ccc3ncccc3c2)[C@@H](O)[C@@]1(C)O (stereo partly drawn) [Example 33, (2S)-neopentyl 2-((((2R,3R,4R)-5-(2-amino-6-methoxy-9H-purin-9-yl)-3,4-dihydroxy-4-methyltetrahydrofuran-2-yl)methoxy)(quinolin-6-yloxy)phosphorylamino)propanoate] | > 100 µM | 0.26 µM |
| COc1nc(N)nc2c1ncn2C1O[C@H](COP(=O)(N[C@@H](C)C(=O)OC2CCOCC2)Oc2ccc3ncccc3c2)[C@@H](O)[C@@]1(C)O (stereo partly drawn) [Example 34, (2S)-tetrahydro-2H-pyran-4-yl 2-((((2R,3R,4R)-5-(2-amino-6-methoxy-9H-purin-9-yl)-3,4-dihydroxy-4-methyltetrahydrofuran-2-yl)methoxy)(quinolin-6-yloxy)phosphorylamino)propanoate] | > 100 µM | 1.1 µM |
| COc1nc(N)nc2c1ncn2C1O[C@H](COP(=O)(N[C@@H](CCSC)C(=O)OCc2ccccc2)Oc2cccc3ccccc23)[C@@H](O)[C@@]1(C)O (stereo partly drawn) [Example 58, (2S)-benzyl 2-((((2R,3R,4R)-5-(2-amino-6-methoxy-9H-purin-9-yl)-3,4-dihydroxy-4-methyltetrahydrofuran-2-yl)methoxy)(naphthalen-1-yloxy)phosphorylamino)-4-(methylthio)butanoate] |  | 0.22 µM |
| CCCOC(=O)[C@@H](NP(=O)(OC[C@H]1OC(n2cnc3c(OC)nc(N)nc32)[C@](C)(O)[C@@H]1O)Oc1cccc2ccccc12)c1ccccc1 (some centres unmarked) [Example 65] |  | 0.086 µM |
| C[C@@]1(O)[C@H](O)[C@@H](CO)O[C@H]1n1cnc2c(NCCc3ccccc3)nc(N)nc21 [Example 86, (3R,4R,5R)-2-(2-amino-6-(phenethylamino)-9H-purin-9-yl)-5-(hydroxymethyl)-3-methyltetrahydrofuran-3,4-diol] |  | 23.6 µM |
| COc1nc(N)nc2c1ncn2C1O[C@H](COP(=O)(N[C@@H](C(=O)OCc2ccccc2)c2ccccc2)Oc2cccc3ccccc23)[C@@H](O)[C@@]1(C)O (some centres unmarked) [compound 68] | 50 µM |  |

— patent US8759318B2, “Phosphoramidate derivatives of guanosine nucleoside compounds for treatment of viral infections” (Inhibitex, Inc., priority 2009, dated 2014)
